Assay results as given in patent publication US10179141B2, “Certain chemical entities, compositions, and methods” (Suzhou NeuPharma Co., Ltd., priority 2010, dated 2019).
In brackets after ≈: the same amount, converted by molar mass.

How the values were obtained:
[1] = test system: A549 cells; test: Inhibition of cell growth in tumor cells, MTT assay, A549; assay type: cell-based; settings: Homo sapiens, 72 h compound exposure
Protocol: (§1) Inhibition of cell growth by compounds was measured using MTT assay (Mosmann, T., Journal of Immunological Methods, 1983, 65, 55-63). Tumor cell lines were purchased from ATCC (American Type Culture Collection, Manassas, Va.). All cell lines were maintained in RPMI 1640 (Hyclone) supplemented with 10% fetal bovine serum (FBS, Hyclone), glutamine (2 mM, Hyclone), and antibiotics (penicillin 100 U/mL and streptomycin 50 μg/mL) at 37° C. in a humidified atmosphere of 5% CO2 in air. Taxol (positive control, Sigma) and compounds were dissolved in DMSO (Sigma), and the final concentration of DMSO in the medium was 1%. Tumor cells were plated in 96-well plates at densities from 4000 cells/well of a 96-well plate and allowed to adhere/grow for 24 h. They were then treated with various concentrations of drug for 72 h. 3-(4,5-Dimethylthiazol-2-yl)-2,5-diphenyltetrazolium bromide (MTT, Sigma) was used to determine the number of viable cells at the time of compound addition and the number of cells remaining after 72 h compound exposure. The number of cells remaining after 72 h was compared to the number of viable cells at the time of compound addition by measuring the absorbance at 570 nm, allowing for the calculation of growth inhibition.
(§2) All concentrations of compounds were tested in triplicate and controls were averaged over 4 wells. IC50 was calculated by plotting the concentration of compound vs the percentage of inhibition in treated wells using GraphPad Prism 5.

[2] = Measurement of equilibrium solubility in aqueous buffer (HPLC UV); assay type: physicochemical; settings: aqueous NaOAc/AcOH buffer, thermodynamic from solid, NaOAc/AcOH buffer (100 mM, pH 5.0), shaken at rt for 24 h
Protocol: The equilibrium solubility of compounds is measured in aqueous buffer. Excess amount of solid compound is added into buffer solution and the sample is briefly sonicated and then shaken at rt for 24 h. The sample is filtered and the concentration is analyzed by HPLC UV. A standard solution at 0.2 mg/mL was prepared in methanol or acetonitrile for each compound and used as an external standard for quantification. Data for bufalin and four of the compounds specifically described herein in NaOAc/AcOH buffer (100 mM, pH 5.0) is shown below.

[3] = test system: Bcap-37 cells; test: Inhibition of cell growth in tumor cells, MTT assay, Bcap-37; assay type: cell-based; settings: Homo sapiens, Bcap37, 72 h compound exposure
Protocol: as §1, §2

[4] = test system: tumor xenografts; test: Inhibition of tumor growth in xenograft model; assay type: in vivo, BALB/c female nude mice; settings: 10 mg/kg, Q4D × 3, i.v.
Protocol: Cells were implanted in BALB/c female nude mice and grown as tumor xenografts. When tumors achieved 150-200 mm^3, mice were assigned into treatment and control groups using randomized block design based upon their tumor volumes. Each group contained 10 tumor-bearing mice. Tumors were measured twice weekly in two dimensions using a caliper, and the tumor volume was calculated from two-dimensional measurements using the equation V=0.5×a×b^2 where a and b are the long and short diameters of the tumor, respectively. The tumor volume was then used for calculations of T/C values. The T/C value was an indication of antitumor effectiveness; T and C were the mean volume of the treated and control groups, respectively, on a given day.

SMILES	IC50 [1]	solubility at 24 h [2]	IC50 [3]	further results
C[C@]12CC[C@H](OC(=O)NCCCC(=O)O)C[C@H]1CC[C@@H]1[C@@H]2CC[C@]2(C)[C@@H](c3ccc(=O)oc3)CC[C@]12O [4-(((((3S,5R,8R,9S,10S,13R,14S,17R)-14-hydroxy-10,13-dimethyl-17-(2-oxo-2H-pyran-5-yl)hexadecahydro-1H-cyclopenta[a]phenanthren-3-yl)oxy)carbonyl)amino)butanoic Acid]	60 nM	–	–	–
C[C@]12CC[C@H](OC(=O)OCCN3CCCC3)C[C@H]1CC[C@@H]1[C@@H]2CC[C@]2(C)[C@@H](c3ccc(=O)oc3)CC[C@]12O [(3S,5R,8R,9S,10S,13R,14S,17R)-14-hydroxy-10,13-dimethyl-17-(2-oxo-2H-pyran-5-yl)hexadecahydro-1H-cyclopenta[a]phenanthren-3-yl (2-(pyrrolidin-1-yl)ethyl) carbonate]	–	710 µg/mL (≈ 1350 µM)	10.6 nM	–
C[C@]12CC[C@H](OC(=O)NCCN3CCCC3)C[C@H]1CC[C@@H]1[C@@H]2CC[C@]2(C)[C@@H](c3ccc(=O)oc3)CC[C@]12O [(3S,5R,8R,9S,10S,13R,14S,17R)-14-hydroxy-10,13-dimethyl-17-(2-oxo-2H-pyran-5-yl)hexadecahydro-1H-cyclopenta[a]phenanthren-3-yl (2-(pyrrolidin-1-yl)ethyl)carbamate]	2.8 nM	1040 µg/mL (≈ 1970 µM)	5.3 nM	–
C[C@]12CC[C@H](OC(=O)OCCN3CCOCC3)C[C@H]1CC[C@@H]1[C@@H]2CC[C@]2(C)[C@@H](c3ccc(=O)oc3)CC[C@]12O [(3S,5R,8R,9S,10S,13R,14S,17R)-14-hydroxy-10,13-dimethyl-17-(2-oxo-2H-pyran-5-yl)hexadecahydro-1H-cyclopenta[a]phenanthren-3-yl (2-morpholinoethyl) carbonate]	12.2 nM	–	–	–
C[C@]12CC[C@H](OC(=O)NCCN3CCOCC3)C[C@H]1CC[C@@H]1[C@@H]2CC[C@]2(C)[C@@H](c3ccc(=O)oc3)CC[C@]12O [(3S,5R,8R,9S,10S,13R,14S,17R)-14-hydroxy-10,13-dimethyl-17-(2-oxo-2H-pyran-5-yl)hexadecahydro-1H-cyclopenta[a]phenanthren-3-yl (2-morpholinoethyl)carbamate]	7.4 nM	–	–	–
C[C@]12CC[C@H](OC(=O)N3CCOCC3)C[C@H]1CC[C@@H]1[C@@H]2CC[C@]2(C)[C@@H](c3ccc(=O)oc3)CC[C@]12O [(3S,5R,8R,9S,10S,13R,14S,17R)-14-hydroxy-10,13-dimethyl-17-(2-oxo-2H-pyran-5-yl)hexadecahydro-1H-cyclopenta[a]phenanthren-3-yl morpholine-4-carboxylate]	–	–	223 nM	–
C[C@]12CC[C@H](OC(=O)N3CCNCC3)C[C@H]1CC[C@@H]1[C@@H]2CC[C@]2(C)[C@@H](c3ccc(=O)oc3)CC[C@]12O [(3S,5R,8R,9S,10S,13R,14S,17R)-14-hydroxy-10,13-dimethyl-17-(2-oxo-2H-pyran-5-yl)hexadecahydro-1H-cyclopenta[a]phenanthren-3-yl piperazine-1-carboxylate]	1.8 nM	840 µg/mL (≈ 1680 µM)	–	–
CC(C)[C@@H](N)C(=O)O[C@H]1CC[C@@]2(C)[C@H](CC[C@@H]3[C@@H]2CC[C@]2(C)[C@@H](c4ccc(=O)oc4)CC[C@]32O)C1 [(R)-(3S,5R,8R,9S,10S,13R,14S,17R)-14-hydroxy-10,13-dimethyl-17-(2-oxo-2H-pyran-5-yl)hexadecahydro-1H-cyclopenta[a]phenanthren-3-yl 2-amino-3-methylbutanoate]	147 nM	–	–	–
CC(C)C[C@@H](N)C(=O)O[C@H]1CC[C@@]2(C)[C@H](CC[C@@H]3[C@@H]2CC[C@]2(C)[C@@H](c4ccc(=O)oc4)CC[C@]32O)C1 [(R)-(3S,5R,8R,9S,10S,13R,14S,17R)-14-hydroxy-10,13-dimethyl-17-(2-oxo-2H-pyran-5-yl)hexadecahydro-1H-cyclopenta[a]phenanthren-3-yl 2-amino-4-methylpentanoate]	58.8 nM	–	–	–
C[C@@H](N)C(=O)O[C@H]1CC[C@@]2(C)[C@H](CC[C@@H]3[C@@H]2CC[C@]2(C)[C@@H](c4ccc(=O)oc4)CC[C@]32O)C1 [(R)-(3S,5R,8R,9S,10S,13R,14S,17R)-14-hydroxy-10,13-dimethyl-17-(2-oxo-2H-pyran-5-yl)hexadecahydro-1H-cyclopenta[a]phenanthren-3-yl 2-aminopropanoate]	3.4 nM	–	–	–
CC(C)[C@H](N)C(=O)O[C@H]1CC[C@@]2(C)[C@H](CC[C@@H]3[C@@H]2CC[C@]2(C)[C@@H](c4ccc(=O)oc4)CC[C@]32O)C1 [(S)-(3S,5R,8R,9S,10S,13R,14S,17R)-14-hydroxy-10,13-dimethyl-17-(2-oxo-2H-pyran-5-yl)hexadecahydro-1H-cyclopenta[a]phenanthren-3-yl 2-amino-3-methylbutanoate]	–	120 µg/mL (≈ 247 µM)	48.9 nM	–
CC(C)C[C@H](N)C(=O)O[C@H]1CC[C@@]2(C)[C@H](CC[C@@H]3[C@@H]2CC[C@]2(C)[C@@H](c4ccc(=O)oc4)CC[C@]32O)C1 [(S)-(3S,5R,8R,9S,10S,13R,14S,17R)-14-hydroxy-10,13-dimethyl-17-(2-oxo-2H-pyran-5-yl)hexadecahydro-1H-cyclopenta[a]phenanthren-3-yl 2-amino-4-methylpentanoate]	15.1 nM	–	–	–
C[C@H](N)C(=O)O[C@H]1CC[C@@]2(C)[C@H](CC[C@@H]3[C@@H]2CC[C@]2(C)[C@@H](c4ccc(=O)oc4)CC[C@]32O)C1 [(S)-(3S,5R,8R,9S,10S,13R,14S,17R)-14-hydroxy-10,13-dimethyl-17-(2-oxo-2H-pyran-5-yl)hexadecahydro-1H-cyclopenta[a]phenanthren-3-yl 2-aminopropanoate]	–	–	15.9 nM	–
C[C@]12CCC(O)C[C@H]1CC[C@@H]1[C@@H]2CC[C@]2(C)[C@@H](c3ccc(=O)oc3)CC[C@]12O (some centres unmarked) [Bufalin, reference compound]	4.4 nM	41 µg/mL (≈ 106 µM)	14 nM	–
CC(=O)O[C@H]1C(=O)[C@@]2(C)[C@H]([C@H](OC(=O)c3ccccc3)[C@]3(O)C[C@H](OC(=O)[C@H](O)[C@@H](NC(=O)c4ccccc4)c4ccccc4)C(C)=C1C3(C)C)[C@]1(OC(C)=O)CO[C@@H]1C[C@@H]2O [Paclitaxel]	–	–	–	T/C ([4]; mean tumor volume treated/control): 74.6%; Tumor Volume Post-treatment ([4]; nude mouse xenograft): 391 ± 43 mm^3
